According to ChEMBL document CHEMBL1909046, “DrugMatrix in vitro pharmacology data”:

Tests used:
Cytochrome P450 2C9 = Cytochrome P450 2C9 (Homo sapiens, UniProt P11712); conditions: bti-tn-5b1-4; also: in other assays of this panel Not Active means under 50% inhibition at 10 µM
[1] = target: 5-hydroxytryptamine receptor 2B (Homo sapiens, UniProt P41595); type: cell membranes, CHO-K1, Membrane; conditions: for Ki: read-out: Ki; as to all read-outs here: in other assays of this panel Not Active means under 50% inhibition at 10 µM
Chain of 5-hydroxytryptamine receptor 2B (P41595 whole entry): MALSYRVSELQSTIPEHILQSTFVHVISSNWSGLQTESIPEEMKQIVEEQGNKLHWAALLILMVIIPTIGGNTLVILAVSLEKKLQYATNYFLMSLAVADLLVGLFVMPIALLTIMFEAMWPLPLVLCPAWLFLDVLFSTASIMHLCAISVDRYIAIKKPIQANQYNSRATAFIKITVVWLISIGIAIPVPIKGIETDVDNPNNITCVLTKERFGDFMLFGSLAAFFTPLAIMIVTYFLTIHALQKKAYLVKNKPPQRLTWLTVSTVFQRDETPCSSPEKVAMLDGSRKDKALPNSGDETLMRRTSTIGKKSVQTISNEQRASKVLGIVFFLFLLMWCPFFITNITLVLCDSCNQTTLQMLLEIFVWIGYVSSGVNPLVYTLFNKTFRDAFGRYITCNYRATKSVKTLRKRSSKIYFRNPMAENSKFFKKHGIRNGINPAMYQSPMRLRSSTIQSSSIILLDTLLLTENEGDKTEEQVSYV

[2] = DRUGMATRIX: Phosphodiesterase PDE4 enzyme inhibition (substrate: [3H]cAMP + cAMP); conditions: u-937, Not Active = under 50% inhibition at 10 µM
[3] = target: T1, Alpha-1A adrenergic receptor (Rattus norvegicus, UniProt P43140); test: DRUGMATRIX: Alpha-1A adrenergic receptor radioligand binding (ligand: prazosin); type: cell membranes, Wistar, Submaxillary gland, Membrane; conditions: Not Active = under 50% inhibition at 10 µM
T1 sequence (P43140 whole entry): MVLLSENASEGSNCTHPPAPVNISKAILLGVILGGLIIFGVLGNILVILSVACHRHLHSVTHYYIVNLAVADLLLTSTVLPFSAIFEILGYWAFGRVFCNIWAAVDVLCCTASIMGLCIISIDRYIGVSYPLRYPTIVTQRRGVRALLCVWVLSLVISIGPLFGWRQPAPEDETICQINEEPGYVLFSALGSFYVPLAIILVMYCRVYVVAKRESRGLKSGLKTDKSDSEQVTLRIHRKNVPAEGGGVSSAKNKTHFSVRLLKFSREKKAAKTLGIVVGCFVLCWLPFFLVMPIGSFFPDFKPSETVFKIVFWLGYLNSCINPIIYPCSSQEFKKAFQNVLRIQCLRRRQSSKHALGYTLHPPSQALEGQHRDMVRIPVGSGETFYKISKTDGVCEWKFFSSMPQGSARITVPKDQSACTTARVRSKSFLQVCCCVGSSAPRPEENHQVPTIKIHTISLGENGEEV

[4] = target: T2, 5-hydroxytryptamine receptor 2C (Homo sapiens, UniProt P28335); test: DRUGMATRIX: Serotonin (5-Hydroxytryptamine) 5-HT2C radioligand binding (ligand: [3H] Mesulergine); type: cell membranes, CHO-K1, Membrane; conditions: Not Active = under 50% inhibition at 10 µM; for Ki: read-out: Ki
T2 sequence (P28335 whole entry): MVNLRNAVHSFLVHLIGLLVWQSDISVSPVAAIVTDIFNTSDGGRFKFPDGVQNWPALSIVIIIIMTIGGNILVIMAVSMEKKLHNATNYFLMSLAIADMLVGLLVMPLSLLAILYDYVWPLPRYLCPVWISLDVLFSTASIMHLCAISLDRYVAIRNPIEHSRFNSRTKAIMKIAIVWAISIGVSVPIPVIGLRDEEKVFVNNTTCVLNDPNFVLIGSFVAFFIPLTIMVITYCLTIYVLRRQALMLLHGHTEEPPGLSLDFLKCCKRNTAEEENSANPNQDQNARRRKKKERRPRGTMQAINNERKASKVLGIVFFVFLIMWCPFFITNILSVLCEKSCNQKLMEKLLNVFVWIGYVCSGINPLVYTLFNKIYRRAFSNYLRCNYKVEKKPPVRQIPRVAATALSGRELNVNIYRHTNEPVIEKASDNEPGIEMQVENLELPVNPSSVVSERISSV

[5] = DRUGMATRIX: Glutamate, Kainate radioligand binding (ligand: [3H] Kainic acid); type: cell membranes, Rattus norvegicus, Wistar, Brain, Membrane; conditions: Not Active = under 50% inhibition at 10 µM

Chain of Cytochrome P450 2C9 (P11712 whole entry): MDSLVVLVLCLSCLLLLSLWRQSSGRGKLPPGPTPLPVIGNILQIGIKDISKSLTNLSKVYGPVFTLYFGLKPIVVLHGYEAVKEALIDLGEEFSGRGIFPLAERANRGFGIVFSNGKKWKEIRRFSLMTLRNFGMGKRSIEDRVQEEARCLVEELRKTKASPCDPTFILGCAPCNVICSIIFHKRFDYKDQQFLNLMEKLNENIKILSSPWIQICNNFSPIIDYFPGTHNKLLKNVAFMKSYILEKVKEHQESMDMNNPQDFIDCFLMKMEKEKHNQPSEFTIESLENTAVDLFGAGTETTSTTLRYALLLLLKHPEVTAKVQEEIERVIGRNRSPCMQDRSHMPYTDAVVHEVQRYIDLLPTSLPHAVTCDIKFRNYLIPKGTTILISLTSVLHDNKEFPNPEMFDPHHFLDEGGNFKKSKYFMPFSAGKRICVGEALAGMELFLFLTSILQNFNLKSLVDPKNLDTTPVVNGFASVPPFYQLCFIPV

Structure (SMILES)	IC50 (Cytochrome P450 2C9)	Ki (Cytochrome P450 2C9)	IC50 ([1]; cho-k1)	IC50 [2]	Ki [2]	IC50 [3]	IC50 ([4]; cho-k1)	IC50 [5]	Ki [5]	IC50 ([2]; read-out: IC50)	IC50 ([4]; read-out: IC50)	Ki [4]	IC50 ([1]; read-out: IC50)	Ki [1]	IC50 ([3]; read-out: IC50)	Ki ([3]; read-out: Ki)
O=C(O)P(=O)(O)O [FOSCARNET]	Not Active	Not Active	Not Active	Not Active	Not Active	Not Active	Not Active	Not Active	Not Active	–	–	–	–	–	–	–
Cc1ccc(C)c(OCCCC(C)(C)C(=O)O)c1 [GEMFIBROZIL]	Not Active	Not Active	Not Active	Not Active	Not Active	Not Active	Not Active	Not Active	Not Active	–	–	–	–	–	–	–
O=c1c(-c2ccc(O)cc2)coc2cc(O)cc(O)c12 [GENISTEIN]	Not Active	Not Active	Not Active	–	–	Not Active	–	Not Active	Not Active	10.9 µM	14.9 µM	7.81 µM	–	–	–	–
Nc1cc(-c2ccncc2)c[nH]c1=O [INAMRINONE]	Not Active	Not Active	Not Active	Not Active	Not Active	Not Active	Not Active	Not Active	Not Active	–	–	–	–	–	–	–
CCCCC1=NC2(CCCC2)C(=O)N1Cc1ccc(-c2ccccc2-c2nnn[nH]2)cc1 [IRBESARTAN]	Not Active	Not Active	Not Active	Not Active	Not Active	Not Active	Not Active	Not Active	Not Active	–	–	–	–	–	–	–
CN1CCC(=C2c3ccccc3CC(=O)c3sccc32)CC1 [KETOTIFEN]	Not Active	Not Active	–	Not Active	Not Active	Not Active	–	Not Active	Not Active	–	0.16 µM	0.084 µM	0.046 µM	0.029 µM	–	–
C[N+](C)(C)C[C@H](O)CC(=O)[O-] [LEVOCARNITINE]	Not Active	Not Active	Not Active	Not Active	Not Active	Not Active	Not Active	Not Active	Not Active	–	–	–	–	–	–	–
C[C@H]1COc2c(N3CCN(C)CC3)c(F)cc3c(=O)c(C(=O)O)cn1c23.C[C@H]1COc2c(N3CCN(C)CC3)c(F)cc3c(=O)c(C(=O)O)cn1c23.O [LEVOFLOXACIN]	Not Active	Not Active	Not Active	Not Active	Not Active	Not Active	Not Active	Not Active	Not Active	–	–	–	–	–	–	–
CCn1cc(C(=O)O)c(=O)c2cc(F)c(N3CCNC(C)C3)c(F)c21 (stereo not drawn) [LOMEFLOXACIN]	Not Active	Not Active	Not Active	Not Active	Not Active	Not Active	Not Active	Not Active	Not Active	–	–	–	–	–	–	–
CN1CCCC(CN2c3ccccc3Sc3ccccc32)C1 (stereo not drawn) [MEPAZINE]	Not Active	Not Active	–	Not Active	Not Active	–	–	Not Active	Not Active	–	0.495 µM	0.259 µM	0.514 µM	0.327 µM	0.144 µM	0.058 µM
Cc1cccc(C)c1NC(=O)C1CCCCN1C (stereo not drawn) [MEPIVACAINE]	Not Active	Not Active	Not Active	Not Active	Not Active	Not Active	Not Active	Not Active	Not Active	–	–	–	–	–	–	–
CN(C)C(=N)NC(=N)N [METFORMIN]	Not Active	Not Active	Not Active	Not Active	Not Active	Not Active	Not Active	Not Active	Not Active	–	–	–	–	–	–	–
